System: accumulation of c-AMP by PGE2
Assay: Antagonism of PGE2-enhanced c-AMP levels in mouse thymus cells (radioimmunoassay)
Format: cell-based
Excerpt: A suitable test for this purpose is based on the enhancement of cyclic AMP (adenosine-3',5'-monophosphate) levels in tissues due to adenyl cyclase stimulated by the action of prostaglandins of the PGE2 type. An exemplification of such a test used to determine the antagonist activity of the compounds of the present invention is as follows. A BC 57/BL (Jackson Laboratories) mouse is sacrificed and the thymus gland removed and teased apart to provide thymus cells which are suspended in a culture medium. The degradation of c-AMP is blocked by addition of 4-(3-butoxy-4-methoxybenzyl)-2-imidazolidinone (Hoffman-LaRoche, Ro 20-1724), a c-AMP phosphodiesterase inhibitor. A measured dose of the compound under test is added to the suspension of cells and the suspension is incubated at 37° C. for ten minutes. A measured dose of PGE2 is added to the suspension, which is then incubated for a further period of 30 minutes. The cells are then centrifuged, washed and the c-AMP extracted with ethanol. The ethanol extract is evaporated to dryness, redissolved in buffer solution and the c-AMP level determined by a radioimmunoassay, see Zimmerman et al, Anal. Biochem. 71, 79 (1976) and Steiner et al, J. Biol. Chem. 247, 1106 (1972). Comparison of the enhancement of c-AMP levels produced by PGE2 alone and by PGE2 together with the compound under test allow determination of the antagonist activity.
An example of the results from this test are those obtained with 2-(3-hydroxy-trans-1-octenyl)-3-(5-carboethoxypentyloxy)-4-pyrone. The initial c-AMP level of the cell culture was measured as 1.9 ± 0.7 picomole c-AMP/10^7 cells. Incubation with 10^-5 M PGE2 alone enhanced the level to 88 ± 7 picomole c-AMP/10^7 cells. By comparison, when the cells were incubated for ten minutes with 7 × 10^-5 M of the test compound the c-AMP level was measured at 2 ± 0.1 picomole c-AMP/10^7 cells. Following incubation for 30 minutes with 10^-5 M PGE2 the level was measured as 51 ± 5 picomole c-AMP/10^7 cells. Similarly, in a second experiment, after ten minutes incubation with 7 × 10^-6 M of the test compound, the c-AMP level was measured at 1.4 ± 0.2 picomoles c-AMP/10^7 cells; after 30 minutes incubation with 10^-5 M PGE2 the c-AMP level was measured as 69 ± 8 picomoles c-AMP/10^7 cells. […] Both of these compounds are well known in the art as prostaglandin antagonists.

CCCCCC(O)/C=C/c1occc(=O)c1OCCCCCC(=O)OCC (racemic) [2-[(3RS)-3-hydroxy-trans-1-octenyl]-3-(5-carboethoxypentyloxy)-4-pyrone]
c-AMP level (7 × 10^-5 M test compound, then 30 minutes with 10^-5 M PGE2 (PGE2 alone 88 ± 7)): 51 ± 5 picomole c-AMP/10^7 cells | c-AMP level (second experiment, 7 × 10^-6 M test compound, then 30 minutes with 10^-5 M PGE2): 69 ± 8 picomoles c-AMP/10^7 cells | c-AMP level (second experiment, ten minutes with 7 × 10^-6 M test compound, before PGE2): 1.4 ± 0.2 picomoles c-AMP/10^7 cells | c-AMP level (thymus cells incubated ten minutes with 7 × 10^-5 M test compound, before PGE2): 2 ± 0.1 picomole c-AMP/10^7 cells

CCCCCCC#C[C@H]1CCC[C@@H]1OCCCCCC(=O)O [7-oxa-13-prostynoic acid, reference compound]
inhibition at 100 µM (Mus musculus, concentration of 10^-4 M, same test conditions): 45%

CCCCC[C@H](O)/C=C/[C@H]1[C@H](O)CC(=O)[C@@H]1C/C=C\CCCC(=O)O [PGE2, reference compound]
c-AMP level (incubation with 10^-5 M PGE2 alone (initial level 1.9 ± 0.7)): 88 ± 7 picomole c-AMP/10^7 cells

CC(=O)NNC(=O)N1Cc2ccccc2Oc2ccc(Cl)cc21 [SC-19220, reference compound]
inhibition at 50 µM (Mus musculus, 5 × 10^-5 M, same test conditions): 30%

Source: US4132847A, “4-Pyrone prostaglandin antagonists” (Pfizer Inc., priority 1977, dated 1979)
